According to article PMC5177629, “Selective Estrogen Receptor Modulators: Cannabinoid Receptor Inverse Agonists with Differential CB1 and CB2 Selectivity” (Frontiers in Pharmacology, 2016):
“Also recorded” adds a separate entry of the source. Marks after values point to notes of the source that are not given here.

Assays:
[1] = target: T1, human cannabinoid type-1 receptors (hCB1) (Homo sapiens, UniProt P21554); test: Competition receptor binding with [3H]CP-55,940, CHO-hCB1 membranes; conditions: single 1 μM concentration, 0.2 nM [3H]CP-55,940, CHO-hCB1
T1 construct: host or cells: CHO cells (CHO-hCB1), membranes or intact cells
T1 sequence (P21554 whole entry): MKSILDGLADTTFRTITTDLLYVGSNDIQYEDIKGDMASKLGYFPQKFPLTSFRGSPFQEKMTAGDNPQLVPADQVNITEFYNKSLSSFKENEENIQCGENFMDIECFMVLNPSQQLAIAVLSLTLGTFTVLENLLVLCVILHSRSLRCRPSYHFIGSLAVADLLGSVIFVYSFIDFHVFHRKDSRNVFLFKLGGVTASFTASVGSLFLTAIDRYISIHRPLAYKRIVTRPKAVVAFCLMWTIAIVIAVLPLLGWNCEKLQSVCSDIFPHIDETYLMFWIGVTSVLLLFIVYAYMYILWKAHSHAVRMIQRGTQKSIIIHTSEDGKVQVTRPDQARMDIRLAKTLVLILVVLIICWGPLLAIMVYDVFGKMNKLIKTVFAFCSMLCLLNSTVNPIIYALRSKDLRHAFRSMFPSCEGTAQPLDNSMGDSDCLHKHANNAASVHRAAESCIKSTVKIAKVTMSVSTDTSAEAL
Description: (§1) In short, pellets were thawed on ice, combined in a 40 ml glass Dounce homogenizer and homogenized in 20 ml of cold buffer (50 mM HEPES at pH 7.4, 3 mM MgCl2, and 1 mM EGTA) using 10 strokes. Homogenates were then centrifuged at 40,000 × g for 10 min at 4°C. After discarding the supernatant, pellets were homogenized and centrifuged twice more. Final pellets were re-suspended in ice-cold 50 mM HEPES, pH 7.4, aliquoted and stored at -80°C for future use. Protein concentration was determined the same day, prior to freezing, using BCA^TM Protein Assay (Thermo Fisher Scientific, Waltham, MA, USA).
The final volume of each sample was 1 ml, containing 50 mM Tris-HCl buffer (pH 7.4), 0.05% bovine serum albumin, 5 mM MgCl2, increasing concentrations of non-radioactive competing SERM ligands, and either 100 μg of CHO-hCB1 or 50 μg of CHO-hCB2 membrane homogenates. […] Each sample condition was performed in triplicate and allowed to reach equilibrium at room temperature for 90 min. Reactions were terminated by rapid vacuum filtration through Whatman GF/B glass fiber filters (Brandel, Inc.), followed by four 4 ml washes of ice-cold filtration buffer (50 mM Tris at pH 7.4 and 0.05% BSA). Filter punches of individual samples were placed in scintillation vials containing 4 mls of ScintiverseTM BD cocktail scintillation fluid (Fisher Scientific, Pittsburg, PA, USA). Final counts were determined using liquid scintillation spectrophotometry (Tri Carb 2100 TR Liquid Scintillation Analyzer, Packard Instrument Company, Meriden, CT, USA) after overnight incubation.
(§2) Statistical analyses were conducted by utilizing GraphPad Prism v6.0g (GraphPad Software, Inc.; San Diego, CA, USA). IC50 values from competition receptor binding curves were derived by non-linear regression. […] Non-linear regression analysis of concentration-effect curves was also used to determine potency (ED50 or IC50) and efficacy (Emax or Imax) for modulation of GTPγS and adenylyl cyclase activity, respectively. All IC50, EC50, Ki, and Kb values were converted to pEC50, pIC50, pKi, and pKb values in order to permit use of parametric statistical analyses. For all experiments comparing three or more values, an one-way ANOVA was employed, followed by Dunnett’s or Tukey’s post hoc tests. For comparisons of two values, an unpaired t-test was utilized. To determine significant radioligand displacement or modulation of G-protein activity compared to basal levels, a one-sample t-test was employed.
(§3) For initial comparison of potential SERM binding to CBRs, 14 commercially available compounds from 5 structurally distinct classes (Figure 1) were subjected to a radioligand binding screen (Figure 2).

[2] = target: T1, human cannabinoid type-1 receptors (hCB1); test: [35S]GTPγS binding, CHO-hCB1 membranes; format: biochemical; conditions: [35S]GTPγS binding, CHO-hCB1, compared with AM-251
Description: as §1
(§4) Non-specific binding was defined by radioactivity remaining in the presence of 10 μM of non-radioactive GTPγS. All reactions were incubated for 30 min at 30°C, terminated by filtration through Whatman GF/B glass fiber filters (Brandel, Inc.) and followed by four 4 ml washes of ice cold filtration buffer (50 mM HEPES, pH 7.4) containing 0.1% bovine serum albumin. Filter punches of individual samples were placed in scintillation vials containing 4 mls of ScintiverseTM BD cocktail scintillation fluid (Fisher Scientific, Pittsburg, PA, USA). Final counts were determined using liquid scintillation spectrophotometry (Tri Carb 2100 TR Liquid Scintillation Analyzer, Packard Instrument Company, Meriden, CT, USA) after overnight incubation.
as §2
(§5) CBRs are coupled to Gi/Go type G-proteins. Therefore, binding of agonists to CBRs leads to G-protein activation, antagonists produce no effect, and inverse agonists reduce basal G-protein activity produced by constitutively active receptors. SERMs were screened by examining the ability of a single receptor saturating concentration (10 μM) to modulate G-protein activity in membranes prepared from CHO-hCB1 and CHO-hCB2 cells. G-protein activation was quantified using employing [^35S]GTPγS, a non-hydrolyzable analog of GTP, that irreversibly binds to the G-proteins when activated.

[3] = target: T2, human cannabinoid type-2 receptors (hCB2) (Homo sapiens, UniProt P34972); test: Adenylyl cyclase assay (forskolin-stimulated cAMP), intact CHO-hCB2 cells; format: cell-based
T2 construct: expressed in transfected cells; host or cells: CHO cells (CHO-hCB2), membranes or intact cells
T2 sequence (P34972 whole entry): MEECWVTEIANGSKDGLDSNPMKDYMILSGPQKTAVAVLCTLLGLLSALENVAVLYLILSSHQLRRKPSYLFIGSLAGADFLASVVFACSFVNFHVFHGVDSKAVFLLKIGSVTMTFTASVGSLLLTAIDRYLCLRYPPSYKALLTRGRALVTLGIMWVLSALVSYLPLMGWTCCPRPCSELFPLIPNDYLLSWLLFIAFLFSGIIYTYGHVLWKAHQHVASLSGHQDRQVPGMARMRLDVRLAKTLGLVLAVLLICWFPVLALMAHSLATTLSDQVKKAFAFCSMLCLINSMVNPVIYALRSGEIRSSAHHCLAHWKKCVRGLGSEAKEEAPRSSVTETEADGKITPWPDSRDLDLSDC
Description: (§6) Briefly, cells cultured between passages 4 and 15 were seeded into 24-well plates at a concentration of 6.5 million cells per plate and incubated overnight in a humidified incubator maintained at 37°C and 5% CO2. Growth media was removed the next day and replaced with media containing […] [^3H]adenine, 0.9g/L NaCl, and 0.5 mM isobutyl-methyl-xanthine (IBMX) for 2–3 h. Radioactive media was then removed and each well treated with 0.5 ml of varying concentrations of SERM compounds in a Krebs-Ringer-HEPES solution (10 mM HEPES, 110 mM NaCl, 25 mM Glucose, 55 mM Sucrose, 5 mM KCl, 1 mM MgCl2, 1.8 mM CaCl2, pH 7.4) containing 0.5 mM IBMX and 10 μM forskolin. Plates were then floated in a 37°C water bath for 15 min before reactions were terminated by addition of 50 μL of 2.2 N HCl to each well.
as §2
To provide a second measure of intrinsic activity, the ability of SERMs to modulate intracellular levels of cAMP in intact cells was examined (Figure 6). CBRs couple to Gi/Go-proteins, and thus cannabinoid agonists inhibit activity of the downstream intracellular effector adenylyl cyclase, reducing intracellular cAMP levels.

[4] = target: T2, human cannabinoid type-2 receptors (hCB2); test: [35S]GTPγS binding, CHO-hCB2 membranes; format: biochemical; conditions: for intrinsic activity at hCB2Rs (partial or full inverse agonist): [35S]GTPγS binding, CHO-hCB2, 10 μM, compared with AM-630
Description: as §1, §4, §2, §5

[5] = target: T2, human cannabinoid type-2 receptors (hCB2); test: Antagonism of CP-55,940 inhibition of adenylyl cyclase, intact CHO-hCB2 cells; format: cell-based
Description: as §6
(§7) Reactions were then terminated by adding 50 μL of 2.2 N HCl to each well. [^3H]cAMP was isolated using alumina column chromatography and radioactivity quantified following addition of 10 mls of scintiverseTM BD cocktail scintillation fluid (Fisher Scientific, Pittsburg, PA, USA) by liquid scintillation spectrophotometry (Tri Carb 2100 TR Liquid Scintillation Analyzer, Packard Instrument Company, Meriden, CT, USA).
as §2
(§8) IC50 and Kb values were converted to pIC50 and pKb values (pIC50 = -Log[IC50] or pKb = -Log[Kb], respectively) to allow use of parametric statistics for comparison.

[6] = target: T2, human cannabinoid type-2 receptors (hCB2); test: Competition receptor binding with [3H]CP-55,940, CHO-hCB2 membranes; conditions: single 1 μM concentration, 0.2 nM [3H]CP-55,940, CHO-hCB2
Description: as §1, with “Membrane homogenates were prepared for competition receptor binding and [^35S]GTPγS binding studies by using pellets previously frozen of CHO-hCB1 or CHO-hCB2 cells as described in ([Franks et al., 2014]). In” for “In”
The final volume of each sample was 1 ml, containing 50 mM Tris-HCl buffer (pH 7.4), 0.05% bovine serum albumin, 5 mM MgCl2, increasing concentrations of non-radioactive competing SERM ligands, and either 100 μg of CHO-hCB1 or 50 μg of CHO-hCB2 membrane homogenates. Non-specific binding was defined by radioactivity remaining in the presence of 1 μM of the non-radioactive CB1/CB2 agonist WIN-55,212-2. Each sample condition was performed in triplicate and allowed to reach equilibrium at room temperature for 90 min. Reactions were terminated by rapid vacuum filtration through Whatman GF/B glass fiber filters (Brandel, Inc.), followed by four 4 ml washes of ice-cold filtration buffer (50 mM Tris at pH 7.4 and 0.05% BSA). Filter punches of individual samples were placed in scintillation vials containing 4 mls of ScintiverseTM BD cocktail scintillation fluid (Fisher Scientific, Pittsburg, PA, USA). Final counts were determined using liquid scintillation spectrophotometry (Tri Carb 2100 TR Liquid Scintillation Analyzer, Packard Instrument Company, Meriden, CT, USA) after overnight incubation.
Statistical analyses were conducted by utilizing GraphPad Prism v6.0g (GraphPad Software, Inc.; San Diego, CA, USA). IC50 values from competition receptor binding curves were derived by non-linear regression. Experimental IC50 values were converted to Ki values (a measure of receptor affinity) by using the Cheng–Prusoff equation ([Cheng and Prusoff, 1973]). Non-linear regression analysis of concentration-effect curves was also used to determine potency (ED50 or IC50) and efficacy (Emax or Imax) for modulation of GTPγS and adenylyl cyclase activity, respectively. All IC50, EC50, Ki, and Kb values were converted to pEC50, pIC50, pKi, and pKb values in order to permit use of parametric statistical analyses. For all experiments comparing three or more values, an one-way ANOVA was employed, followed by Dunnett’s or Tukey’s post hoc tests. For comparisons of two values, an unpaired t-test was utilized. To determine significant radioligand displacement or modulation of G-protein activity compared to basal levels, a one-sample t-test was employed.
as §3

[7] = target: T1, human cannabinoid type-1 receptors (hCB1); test: Antagonism of CP-55,940 inhibition of adenylyl cyclase, intact CHO-hCB1 cells; format: cell-based
Description: as §6, §7, §2, §8

CN(C)CCOc1ccc(/C(=C(/CCCl)c2ccccc2)c2ccc(O)cc2)cc1 [4OH-TOR, 4-hydroxy-toremifene]
displacement of [3H]CP-55,940 from hCB1Rs [1]: approximately 50%

4-hydroxy-tamoxifen [4OH-TX]
intrinsic activity at CB1Rs (partial or full inverse agonist) [2]: partial
displacement of [3H]CP-55,940 from hCB1Rs [1]: approximately 50%

COc1ccc(C(=O)c2c(C)n(CCN3CCOCC3)c3cc(I)ccc23)cc1 [AM-630]
EMAX, Intracellular [3H]cAMP ([3]; elevation of cAMP): 214 ± 6.5^b %
EC50 ([3]; increase of cAMP, 10 μM forskolin, read-out: EC50, Intracellular [3H]cAMP): 398 nM
pEC50, Intracellular [3H]cAMP ([3]; mean ± SEM): 6.40 ± 0.096^c
reduction of G-protein activity, hCB2Rs ([4]; CHO-hCB2 membranes, 10 μM): 34%
fold parallel shift-to-the-right of CP-55,940 concentration-effect curve, CHO-hCB2 ([5]; AM-630 1 μM pre-incubation): 33 fold
IMAX of CP-55,940 after pre-incubation with the drug ([5]; CHO-hCB2 cells, pre-incubation 30 min: OSP, NAF 10 μM, RAL, BAZ 2 μM, AM-630 1 μM): 31.7 ± 0.3%
Kb ([5]; calculated from shift of CP-55,940 curve, intact CHO-hCB2 cells, read-out: Kb (antagonist dissociation constant), CHO-hCB2): 55.4 nM
pKb, CHO-hCB2 ([5]; intact CHO-hCB2 cells, mean ± SEM): 7.26 ± .064^b

CC(C)N1CCN(c2ccc(C(=O)c3c(-c4ccc(O)cc4)sc4cc(O)ccc34)cc2)CC1 [Y-134]
intrinsic activity at CB1Rs (partial or full inverse agonist) [2]: partial
intrinsic activity at hCB2Rs (partial or full inverse agonist) [4]: partial inverse agonist activity

CC/C(=C(\c1ccc(O)cc1)c1ccc(OCCNC)cc1)c1ccccc1 [ENDX, endoxifen]
displacement of [3H]CP-55,940 from hCB1Rs [1]: approximately 50%

Oc1ccc2c(c1)CC[C@H](c1ccccc1)[C@@H]2c1ccc(OCCN2CCCC2)cc1 [LAS, lasofoxifene]
intrinsic activity at hCB2Rs (partial or full inverse agonist) [4]: partial inverse agonist activity

CC1=C(c2ccc(O)cc2)[C@H](c2ccc(OCCN3CCCCC3)cc2)Oc2cc(O)ccc21 [acolbifene]
displacement of [3H]CP-55,940 from hCB2Rs [6]: fails to displace; also recorded: did not produce any displacement
displacement of [3H]CP-55,940 from hCB1Rs [1]: fails to displace; also recorded: did not produce any displacement

Cc1c(C(=O)NN2CCOCC2)nn(-c2ccc(Cl)cc2Cl)c1-c1ccc(I)cc1 [AM-281]
fold decrease in potency of CP-55,940, CHO-hCB1 ([7]; AM-281 1 μM pre-incubation): 16 fold
IMAX of CP-55,940 after pre-incubation with the drug ([7]; CHO-hCB1 cells, pre-incubation 30 min: OSP, NAF, BAZ 10 μM, RAL 2 μM, AM-281 1 μM): 35.7 ± 0.9%
Kb ([7]; calculated from shift of CP-55,940 curve, intact CHO-hCB1 cells, read-out: Kb (antagonist dissociation constant), CHO-hCB1): 155 nM
pKb, CHO-hCB1 ([7]; intact CHO-hCB1 cells, mean ± SEM): 6.810 ± 0.061^a
